In article PMC4275348 (Molecular microbiology, 2014):
Residue numbers refer to the chain shown, from its start.

Key:
[1] = target: T1, luxN^S184I/S230P (Vibrio campbellii, UniProt A7MRY4, S184I/S230P); test: Bioluminescence of V. harveyi XK006 carrying luxN S184I/S230P; type: cell-based, Vibrio harveyi; conditions: 10 μM 3O-C10 HSL
T1 sequence (A7MRY4 1-849 S184I/S230P): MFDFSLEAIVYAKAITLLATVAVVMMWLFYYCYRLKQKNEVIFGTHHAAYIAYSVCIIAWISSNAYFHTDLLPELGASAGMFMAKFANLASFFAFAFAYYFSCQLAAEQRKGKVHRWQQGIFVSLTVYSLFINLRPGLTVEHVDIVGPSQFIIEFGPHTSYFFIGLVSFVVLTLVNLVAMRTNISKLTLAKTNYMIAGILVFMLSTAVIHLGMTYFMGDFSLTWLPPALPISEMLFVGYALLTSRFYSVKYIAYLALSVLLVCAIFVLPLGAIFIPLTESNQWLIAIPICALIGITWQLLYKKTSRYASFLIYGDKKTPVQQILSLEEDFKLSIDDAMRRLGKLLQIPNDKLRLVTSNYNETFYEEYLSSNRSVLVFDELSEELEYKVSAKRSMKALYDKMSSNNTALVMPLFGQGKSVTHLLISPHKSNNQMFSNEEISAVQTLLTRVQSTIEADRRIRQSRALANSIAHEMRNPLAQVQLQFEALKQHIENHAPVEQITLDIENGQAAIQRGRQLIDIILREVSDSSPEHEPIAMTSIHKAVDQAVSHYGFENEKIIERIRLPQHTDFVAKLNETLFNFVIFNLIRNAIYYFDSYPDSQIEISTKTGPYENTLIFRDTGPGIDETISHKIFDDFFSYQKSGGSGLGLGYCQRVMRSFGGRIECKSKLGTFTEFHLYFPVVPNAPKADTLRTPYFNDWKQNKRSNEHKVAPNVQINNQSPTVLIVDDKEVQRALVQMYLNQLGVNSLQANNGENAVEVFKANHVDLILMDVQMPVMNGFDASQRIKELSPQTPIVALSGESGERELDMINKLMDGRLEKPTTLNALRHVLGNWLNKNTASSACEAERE

[2] = target: T2, luxN^T159I/Y193K (Vibrio campbellii, UniProt A7MRY4, N193K/T159I); test: Bioluminescence of V. harveyi XK006 carrying luxN T159I/Y193K; type: cell-based, Vibrio harveyi; conditions: 10 μM 3O-C10 HSL
T2 sequence (A7MRY4 1-849 T159I/N193K): T1 sequence (A7MRY4 1-849 S184I/S230P) with T159I, I184S, N193K, P230S

[3] = target: luxN^S230P (Vibrio campbellii, UniProt A7MRY4, S230P); conditions: 10 μM 3O-C10 HSL
[4] = target: T3, LuxN (Vibrio campbellii, UniProt A7MRY4); type: cell-based, Vibrio harveyi; conditions: 1 μM AHL with 20 nM AI-1; V. harveyi TL25
[5] = test system: WT AinR; test: Bioluminescence of V. harveyi XK006 harboring WT V. fischeri ainR; type: cell-based, Vibrio fischeri; conditions: AHLs added at 1 μM
[6] = test system: AinR^Q204H; test: Bioluminescence of V. harveyi XK006 harboring ainR Q204H; type: cell-based, Vibrio fischeri
[7] = target: LuxN^L166A (Vibrio campbellii, UniProt A7MRY4, L166A)
[8] = target: luxN^L166A/H210N (Vibrio campbellii, UniProt A7MRY4, H210N/L166A); conditions: AHLs added at 1 μM
[9] = target: LuxN^L166A mutant with Ser209 (Vibrio campbellii, UniProt A7MRY4, I209S/L166A); conditions: AHLs added at 1 μM
[10] = target: WT LuxN (Vibrio campbellii, UniProt A7MRY4); conditions: XK006 carrying WT luxN
[11] = target: T4, LuxN^H210Q (Vibrio campbellii, UniProt A7MRY4, H210Q); test: Bioluminescence of V. harveyi XK006 carrying luxN H210Q; type: cell-based, Vibrio harveyi; conditions: 1 μM AHL
T4 sequence (A7MRY4 1-849 H210Q): T1 sequence (A7MRY4 1-849 S184I/S230P) with I184S, H210Q, P230S

[12] = target: T5, LuxN^H210T (Vibrio campbellii, UniProt A7MRY4, H210T); test: Bioluminescence of V. harveyi XK006 carrying luxN H210T; type: cell-based, Vibrio harveyi; conditions: 1 μM AHL
T5 sequence (A7MRY4 1-849 H210T): T1 sequence (A7MRY4 1-849 S184I/S230P) with I184S, H210T, P230S

[13] = test system: Kin^off LuxN mutants; test: Bioluminescence of V. harveyi XK847 harboring Kin^off luxN alleles; type: cell-based, Vibrio harveyi
[14] = target: T3, LuxN; conditions: 1 μM AHL; V. harveyi TL25

CCCCCCCC(=O)CC(=O)N[C@H]1CCOC1=O [3O-C10 HSL]
increase in light production [1]: 10 fold
increase in light production [2]: 20 fold
induction of light production [3]: 20 fold

CCCCCC(O)CC(=O)N[C@H]1CCOC1=O (some centres unmarked) [3OH-C8 HSL]
reduction in light production [4]: five-fold
light production [5]: light production was induced
detection (light production) [6]: lost the ability to detect
detection (light production) [7]: robustly detects
light production [8]: Significantly less light
ligand detection (light production) [9]: restricted to 3OH-C8 HSL

C[C@@H](O)CC(=O)N[C@H]1CCOC1=O [(S)-3OH-C4 HSL]
response (dose-dependent light production) [10]: did not respond

CCCC(=O)N[C@H]1CCOC1=O [C4 HSL]
induction of light production [11]: 30 fold
induction of light production [12]: 100 fold
light production / detection [13]: also detected
induction of light production [14]: did not induce light production
